From patent US7741354B2, “Inhibitors of glutaminyl cyclase” (Probiodrug AG, priority 2006, dated 2010)

These compounds were tested against hQC (Homo sapiens, UniProt Q16769) (assay: Fluorometric (fluorescent) assay of hQC inhibition, IC50). Details: hQC inhibition; read-out: IC50.
Type: biochemical
Protocol: All compounds were immediately tested regarding their activity as hQC inhibitors.
The purity of the compounds was determined by HPLC-MS. The IC50 value against hQC was measured using the fluorescent assay.
All measurements were performed with a BioAssay Reader HTS-7000Plus for microplates (Perkin Elmer) at 30° C. QC activity was evaluated fluorometrically using H-Gln-βNA. The samples consisted of 0.2 mM fluorogenic substrate, 0.25 U pyroglutamyl aminopeptidase (Unizyme, Horsholm, Denmark) in 0.2 M Tris/HCl, pH 8.0 containing 20 mM EDTA and an appropriately diluted aliquot of QC in a final volume of 250 μl. Excitation/emission wavelengths were 320/410 nm. The assay reactions were initiated by addition of glutaminyl cyclase. QC activity was determined from a standard curve of β-naphthylamine under assay conditions. One unit is defined as the amount of QC catalyzing the formation of 1 μmol pGlu-βNA from H-Gln-βNA per minute under the described conditions.
In a second fluorometric assay, QC was activity determined using H-Gln-AMC as substrate. Reactions were carried out at 30° C. utilizing the NOVOStar reader for microplates (BMG labtechnologies). The samples consisted of varying concentrations of the fluorogenic substrate, 0.1 U pyroglutamyl aminopeptidase (Qiagen) in 0.05 M Tris/HCl, pH 8.0 containing 5 mM EDTA and an appropriately diluted aliquot of QC in a final volume of 250 μl. Excitation/emission wavelengths were 380/460 nm. The assay reactions were initiated by addition of glutaminyl cyclase. QC activity was determined from a standard curve of 7-amino-4-methylcoumarin under assay conditions. The kinetic data were evaluated using GraFit sofware.
For inhibitor testing, the sample composition was the same as described above, except of the putative inhibitory compound added. For a rapid test of QC-inhibition, samples contained 4 mM of the respective inhibitor and a substrate concentration at 1 KM. For detailed investigations of the inhibition and determination of Ki-values, influence of the inhibitor on the auxiliary enzymes was investigated first. […] The inhibitory constant was evaluated by fitting the set of progress curves to the general equation for competitive inhibition using GraFit software.

Sequence of hQC (Q16769 29-361): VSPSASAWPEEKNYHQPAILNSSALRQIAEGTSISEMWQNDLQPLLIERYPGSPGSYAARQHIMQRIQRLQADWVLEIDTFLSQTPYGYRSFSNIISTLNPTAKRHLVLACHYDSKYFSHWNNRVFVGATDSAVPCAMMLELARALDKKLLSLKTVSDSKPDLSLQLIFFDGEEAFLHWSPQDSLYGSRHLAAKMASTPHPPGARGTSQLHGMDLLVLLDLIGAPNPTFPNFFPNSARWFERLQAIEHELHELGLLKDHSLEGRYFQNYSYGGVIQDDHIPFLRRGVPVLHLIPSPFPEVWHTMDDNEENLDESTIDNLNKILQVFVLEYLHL

IC50 [µM] | Structure (SMILES)
8.5 | COc1ccc(C(Nc2ccc3[nH]cnc3c2)c2nnnn2CC2CCCO2)cc1F (centres unmarked) [compound 163, (1H-Benzoimidazol-5-yl)-{(3-fluoro-4-methoxy-phenyl)-[1-(tetrahydro-furan-2-ylmethyl)-1H-tetrazol-5-yl]-methyl}-amine]
1.3 | Brc1cc(Br)cc(C(Nc2ccc3[nH]cnc3c2)c2nnnn2Cc2ccccc2)c1 (centres unmarked) [compound 190, (1H-Benzoimidazol-5-yl)-[(1-benzyl-1H-tetrazol-5-yl)-(3,5-dibromo-phenyl)-methyl]-amine]
4 | Brc1cc(Br)cc(C(Nc2ccc3[nH]cnc3c2)c2nnnn2CCC(c2ccccc2)c2ccccc2)c1 (centres unmarked) [compound 188, (1H-Benzoimidazol-5-yl)-{(3,5-dibromo-phenyl)-[1-(3,3-diphenyl-propyl)-1H-tetrazol-5-yl]-methyl}-amine]
6.7 | c1cncc(Cn2nnnc2C(Nc2ccc3[nH]cnc3c2)c2ccc3nsnc3c2)c1 (centres unmarked) [compound 185]
9.4 | CC1(C)OCC(Cn2nnnc2C(Nc2ccc3[nH]cnc3c2)c2ccc3c(c2)OCO3)O1 (centres unmarked) [compound 138, {Benzo[1,3]dioxol-5-yl-[1-(2,2-dimethyl-[1,3]dioxolan-4-ylmethyl)-1H-tetrazol-5-yl]-methyl}-(1H-benzoimidazol-5-yl)-amine]
8.5 | C/C=C/C=C/C(Nc1ccc2[nH]cnc2c1)c1nnnn1CC1CCCO1 (centres unmarked) [compound 174, (1H-Benzoimidazol-5-yl)-{(2E,4E)-1-[1-(tetrahydro-furan-2-ylmethyl)-1H-tetrazol-5-yl]-hexa-2,4-dienyl}-amine]
2.2 | CC(C)(C)OC(=O)Cn1nnnc1C(Nc1ccc2[nH]cnc2c1)c1ccc(-c2ccccn2)cc1 (centres unmarked) [compound 212, {5-[(1H-Benzoimidazol-5-ylamino)-(4-pyridin-2-yl-phenyl)-methyl]-tetrazol-1-yl}-acetic acid tert-butyl ester]
2.2 | Clc1ccccc1Cn1nnnc1C(Nc1ccc2[nH]cnc2c1)c1ccc2nsnc2c1 (centres unmarked) [compound 205]
4.9 | CCOC(=O)C1CCCCC1n1nnnc1C(Nc1ccc2[nH]cnc2c1)c1ccc(C)c(C)c1 (centres unmarked) [compound 155]
8.5 | CC1(C)OCC(Cn2nnnc2C(Nc2ccc3[nH]cnc3c2)c2ccc(Cl)c([N+](=O)[O-])c2)O1 (centres unmarked) [compound 171, (1H-Benzoimidazol-5-yl)-{(4-chloro-3-nitro-phenyl)-[1-(2,2-dimethyl-[1,3]dioxolan-4-ylmethyl)-1H-tetrazol-5-yl]-methyl}-amine]
5.8 | COC(=O)c1cccc(C(Nc2ccc3[nH]cnc3c2)c2nnnn2CC2CCCO2)c1 (centres unmarked) [compound 154, 3-{(1H-Benzoimidazol-5-ylamino)-[1-(tetrahydro-furan-2-ylmethyl)-1H-tetrazol-5-yl]-methyl}-benzoic acid methyl ester]
2.2 | CCCOc1cccc(C(Nc2ccc3[nH]cnc3c2)c2nnnn2C2CCCCC2C(=O)OCC)c1 (centres unmarked) [compound 208]
4.9 | Cc1ccc(C(Nc2ccc3[nH]cnc3c2)c2nnnn2CCCN2CCCC2=O)cc1C (centres unmarked) [compound 164, 1-(3-{5-[(1H-Benzoimidazol-5-ylamino)-(3,4-dimethyl-phenyl)-methyl]-tetrazol-1-yl}-propyl)-pyrrolidin-2-one]
5.8 | O=C1CCCN1CCCn1nnnc1C(Nc1ccc2[nH]cnc2c1)c1cc(Br)cc(Br)c1 (centres unmarked) [compound 176, 1-(3-{5-[(1H-Benzoimidazol-5-ylamino)-(3,5-dibromo-phenyl)-methyl]-tetrazol-1-yl}-propyl)-pyrrolidin-2-one]
4 | Brc1ccc(C(Nc2ccc3[nH]cnc3c2)c2nnnn2Cc2cccnc2)cc1 (centres unmarked) [compound 201, (1H-Benzoimidazol-5-yl)-[(4-bromo-phenyl)-(1-pyridin-3-ylmethyl-1H-tetrazol-5-yl)-methyl]-amine]
8.5 | CCc1ccc(C(Nc2ccc3[nH]cnc3c2)c2nnnn2CC2CCCO2)s1 (centres unmarked) [compound 129, (1H-Benzoimidazol-5-yl)-{(5-ethyl-thiophen-2-yl)-[1-(tetrahydro-furan-2-ylmethyl)-1H-tetrazol-5-yl]-methyl}-amine]
5.8 | C1=COC(C(Nc2ccc3nc[nH]c3c2)c2nnnn2CCc2cccs2)CC1 (centres unmarked) [compound 182, (1H-Benzoimidazol-5-yl)-{(3,4-dihydro-2H-pyran-2-yl)-[1-(2-thiophen-2-yl-ethyl)-1H-tetrazol-5-yl]-methyl}-amine]
5.8 | C/C=C/C=C/C(Nc1ccc2[nH]cnc2c1)c1nnnn1CCc1cccs1 (centres unmarked) [compound 161, (1H-Benzoimidazol-5-yl)-{(2E,4E)-1-[1-(2-thiophen-2-yl-ethyl)-1H-tetrazol-5-yl]-hexa-2,4-dienyl}-amine]
4.9 | c1ccc(C(c2ccccc2)n2nnnc2C(Nc2ccc3[nH]cnc3c2)c2cnc3ccccc3c2)cc1 (centres unmarked) [compound 126, [(1-Benzhydryl-1H-tetrazol-5-yl)-quinolin-3-yl-methyl]-(1H-benzoimidazol-5-yl)-amine]
5.8 | Cc1cc(C)cc(C(Nc2ccc3[nH]cnc3c2)c2nnnn2Cc2ccccc2)c1 (centres unmarked) [compound 124, (1H-Benzoimidazol-5-yl)-[(1-benzyl-1H-tetrazol-5-yl)-(3,5-dimethyl-phenyl)-methyl]-amine]

Same assay, conditions: purified compound from preparative synthesis; fluorescent assay; read-out: IC50 hQC

IC50 [µM] | Structure (SMILES)
2.37 | Cc1ccc(O)c(C(NCCCn2ccnc2)c2nnnn2CC(C)(C)C)c1 (centres unmarked) [Compound 63, 2-[[1-(2,2-Dimethyl-propyl)-1H-tetrazol-5-yl]-(3-imidazol-1-yl-propylamino)-methyl]-4-methyl-phenol]

Same assay, conditions: read-out: IC50

IC50 [µM] | Structure (SMILES)
1.3 | c1ccc2c(C(Nc3ccc4[nH]cnc4c3)c3nnnn3CC3CCCO3)csc2c1 (centres unmarked) [compound 78]
3.1 | COCCCn1nnnc1C(NCCCn1ccnc1)c1ccc2ccccc2n1 (centres unmarked) [compound 36, (3-Imidazol-1-yl-propyl)-{[1-(3-methoxy-propyl)-1H-tetrazol-5-yl]-quinolin-2-yl-methyl}-amine]
6.7 | CC(C)(C)Cn1nnnc1C(NCCCn1ccnc1)[C@@H]1CCC=CO1 (some centres unmarked) [compound 67]
4.9 | CCCCn1nnnc1C(NCCCn1ccnc1)c1cc(C)c(C)cc1C (centres unmarked) [compound 24, [(1-Butyl-1H-tetrazol-5-yl)-(2,4,5-trimethyl-phenyl)-methy]-(3-imidazol-1-yl-propyl)-amine]
0.04 | Cc1ccc(O)c(C(NCCCn2ccnc2)c2nnnn2CC(C)(C)C)c1 (centres unmarked) [Compound 63, 2-[[1-(2,2-Dimethyl-propyl)-1H-tetrazol-5-yl]-(3-imidazol-1-yl-propylamino)-methyl]-4-methyl-phenol]
4 | CCc1ccc(C(Nc2ccc3[nH]cnc3c2)c2nnnn2Cc2cccnc2)cc1 (centres unmarked) [compound 82, (1H-Benzoimidazol-5-yl)-[(4-ethyl-phenyl)-(1-pyridin-3-ylmethyl-1H-tetrazol-5-yl)-methyl]-amine]
6.7 | c1cn(CCCNC(c2ccc3[nH]ccc3c2)c2nnnn2C[C@@H]2CCCO2)cn1 (stereo partly drawn) [compound 13, (3-Imidazol-1-yl-propyl)-((1H-indol-5-yl)-{1-[(S)-1-(tetrahydro-furan-2-yl)methyl]-1H-tetrazol-5-yl}-methyl)-amine]
6.7 | C1=COC(C(Nc2ccc3[nH]cnc3c2)c2nnnn2C2CCCCC2)CC1 (centres unmarked) [compound 114]
2.2 | CCCCn1nnnc1C(NCCCn1ccnc1)c1cc(C)ccc1O (centres unmarked) [compound 19, 2[(1-Butyl-1H-tetrazol-5-yl)-(3-imidazol-1-yl-propylamino)-mehtyl]-4-methyl-phenol]
1.3 | COc1ccc(C(Nc2ccc3[nH]cnc3c2)c2nnnn2CC2CCCO2)cc1Br (centres unmarked) [compound 109, (1H-Benzoimidazol-5-yl)-{(3-bromo-4-methoxy-phenyl)-[1-(tetrahydro-furan-2-ylmethyl)-1H-tetrazol-5-yl]-methyl}-amine]
9.4 | CCCCn1nnnc1C(NCCCn1ccnc1)c1cc2ccccc2o1 (centres unmarked) [compound 23]
7.6 | C=CCn1nnnc1C(NCCCn1ccnc1)c1ccc2[nH]ccc2c1 (centres unmarked) [compound 46, [(1-Allyl-1H-tetrazol-5-yl)-(1H-indol-5-yl)-methyl]-(3-imidazol-1-yl-propyl)-amine]
4.9 | CCOC(=O)C1CCCCC1n1nnnc1C(Nc1ccc2[nH]cnc2c1)c1ccc(Br)cc1 (centres unmarked) [compound 103]
4.9 | COC(=O)Cn1nnnc1C(NCCCn1ccnc1)c1ccc2cccc(O)c2n1 (centres unmarked) [compound 52]
5.8 | c1ccc(C(c2ccccc2)n2nnnc2C(Nc2ccc3[nH]cnc3c2)c2ccc3nsnc3c2)cc1 (centres unmarked) [compound 112, [(1-Benzhydryl-1H-tetrazol-5-yl)-benzo[c][1,2,5]thia-diazol-5-yl-methyl]-(1H-benzoimidazol-5-yl)-amine]
0.4 | CC(C)(C)n1nnnc1C(NCCCn1ccnc1)c1ccc2cccc(O)c2n1 (centres unmarked) [compound 60, 2-[(1-tert-Butyl-1H-tetrazol-5-yl)-(3-imidazol-1-yl-propylamino)-methyl]-quinolin-8-ol]
4.9 | Clc1ccc(Cn2nnnc2[C@H](NCCCn2ccnc2)C2CCC=CO2)cc1 (stereo partly drawn) [compound 9, {(S)-[1-(4-Chloro-benzyl)-1H-tetrazol-5-yl]-3,4-dihydro-2H-pyran-2-yl-methyl}-(3-imidazol-1-yl-propyl)-amine]
